From BindingDB's records for doi:10.7270/Q2N301S8 (D3R/Abbott, 2020) come the findings set out here.

For the test, the target named is Beta-secretase 1 (Homo sapiens, UniProt P56817). As to the kind of experiment: D3R2027.
Sequence of Beta-secretase 1 (P56817 whole entry): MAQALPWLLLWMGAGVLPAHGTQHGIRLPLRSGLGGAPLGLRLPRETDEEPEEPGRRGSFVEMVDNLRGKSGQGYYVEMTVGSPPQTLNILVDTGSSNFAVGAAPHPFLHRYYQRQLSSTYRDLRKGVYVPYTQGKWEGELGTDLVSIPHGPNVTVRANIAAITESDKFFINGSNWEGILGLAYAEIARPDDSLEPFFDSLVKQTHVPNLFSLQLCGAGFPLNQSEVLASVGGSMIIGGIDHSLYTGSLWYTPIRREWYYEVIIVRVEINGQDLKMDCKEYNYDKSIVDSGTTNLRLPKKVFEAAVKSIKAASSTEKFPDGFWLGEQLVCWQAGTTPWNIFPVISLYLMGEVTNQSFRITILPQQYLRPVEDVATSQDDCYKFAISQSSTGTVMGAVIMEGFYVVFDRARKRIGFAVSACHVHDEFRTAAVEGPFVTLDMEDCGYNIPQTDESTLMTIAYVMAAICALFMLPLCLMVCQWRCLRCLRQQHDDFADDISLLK
Excerpt: D3R2027
The term IC50 denotes the concentration needed to halve the response being measured. A higher IC50 goes with weaker potency. In turn, `CCCCNC(=O)[C@H](C)C[C@H](O)[C@@H]1C[C@H](C)CCCCCN(CC)C(=O)c2cc(OCC)cc(c2)C(=O)N1` [BACE_1] yielded an IC50 of 0.016 µM.
As for `C[C@@H]1CCCCCCOCC(=O)N(C)[C@@H](C)C(=O)N[C@H]([C@H](O)CNC2(c3cccc(C(C)(C)C)c3)CC2)C1` [BACE_4], the figure is 0.0075 µM.
Next, `CCCc1cc(CNC[C@@H](O)[C@@H]2C[C@H](C)CCCCCCOCC(=O)N(C)[C@@H](C)C(=O)N2)n[nH]1` [BACE_5]: 0.4 µM; `CCN1CCCCC[C@@H](C)C[C@@H]([C@H](O)CNCc2cccc(C(C)C)c2)NC(=O)c2cccc(c2)C1=O` [BACE_6]: 0.021 µM; `CC(C)c1cccc(CNC[C@@H](O)[C@@H]2C[C@H](C)CCCCCN([C@H](C)c3ccccc3)C(=O)c3cc(cc(-c4ncco4)c3)C(=O)N2)c1` [BACE_7]: 0.002 µM.
Next, `CC(C)c1cccc(CNC[C@@H](O)[C@@H]2C[C@H](C)CCOCCCCNc3cc(cc(Cl)n3)C(=O)N2)c1` [BACE_8]: 0.031 µM.
The compound `COCc1cc2cc(c1)C(=O)N[C@H]([C@H](O)CNCc1cccc(C(C)C)c1)C[C@H](C)CCCCCCCN2` [BACE_9] came in with a concentration for half-maximal inhibition (IC50) of 0.093 µM.
The compound `COCc1cc2cc(c1)C(=O)N[C@H]([C@H](O)CNCc1cccc(C(C)C)c1)C[C@H](C)CCOCCCCN2` [BACE_10] returned a concentration for half-maximal inhibition (IC50) of 0.57 µM.
As for `CC(C)c1cccc(CNC[C@@H](O)[C@@H]2Cc3cccc(c3)OCCCCCC(=O)N(C)[C@@H](C)C(=O)N2)c1` [BACE_11], the figure is 0.032 µM; as for `COc1cc2cc(n1)NCCCCc1cccc(c1)C[C@@H]([C@H](O)CNCc1cccc(C(C)C)c1)NC2=O` [BACE_12], 0.0078 µM; as for `COCc1cc2cc(c1)C(=O)N[C@H]([C@H](O)[C@H]1CO[C@@H](COC)CN1)Cc1cccc(c1)OCCCCN2` [BACE_13], 8.3 µM.
As for `CC(=O)c1cc2cc(c1)C(=O)N[C@H]([C@H](O)CNC1(c3cccc(C(C)C)c3)CC1)Cc1cccc(c1)OCCCCN2` [BACE_14], the figure is 0.009 µM; as for `COCc1cc2cc(c1)C(=O)N[C@H]([C@H](O)CNCc1cccc(C(C)C)c1)Cc1cccc(c1)OCCCCO2` [BACE_15], 0.072 µM; as for `CC(=O)COc1cc2cc(c1)C(=O)N[C@H]([C@H](O)CNCc1cccc(C(C)C)c1)Cc1cccc(c1)OCCCCO2` [BACE_16], 0.034 µM.
Next, `CCCCNC(=O)[C@H](C)C[C@H](O)[C@@H]1C[C@H](C)CCc2cccc(c2)CS(=O)(=O)C[C@@H](C)C(=O)N1` [BACE_19]: 0.26 µM; `CCCCNC(=O)[C@H](C)C[C@H](O)[C@H](Cc1ccccc1)NC(=O)c1cc(NCCCC)nc(OC)c1` [BACE_20]: 0.77 µM.
`CC(C)c1cccc(CNC[C@@H](O)[C@@H]2C[C@H](C)CC/C=C/CCCCC(=O)N(C)[C@@H](C)C(=O)N2)c1` [BACE_21] gave a 50% inhibitory concentration (IC50) of 0.3 µM.
Next, `C[C@@H]1CCCCCCCCC(=O)N(C)[C@@H](C)C(=O)N[C@H]([C@H](O)CN[C@@H](C)c2cccc(Br)c2)C1` [BACE_22]: 0.055 µM; `C[C@@H]1CCCCCCCCC(=O)N(C)[C@@H](C)C(=O)N[C@H]([C@H](O)CNC2(c3cc(C(C)(C)C)ccn3)CC2)C1` [BACE_23]: 0.002 µM.
Compound `CCOc1ccc(C(F)(F)F)c(CNC[C@@H](O)[C@@H]2C[C@H](C)CCCCCCCCC(=O)N(C)[C@@H](C)C(=O)N2)c1` [BACE_24] gave an IC50 of 0.053 µM.
Next, `CC(C)Cc1cncc(CNC[C@@H](O)[C@@H]2C[C@H](C)CC/C=C/CCCCC(=O)N(C)[C@@H](C)C(=O)N2)c1` [BACE_25]: 0.13 µM; `CC(C)Cc1cncc(C(C)(C)NC[C@@H](O)[C@@H]2C[C@H](C)CCCCCCCCC(=O)N(C)[C@@H](C)C(=O)N2)c1` [BACE_26]: 0.27 µM.
In the case of `C[C@@H]1CCCCCCCCC(=O)N(C)[C@@H](C)C(=O)N[C@H]([C@H](O)CNC(C)(C)c2cc(CC(C)(C)C)on2)C1` [BACE_27], the concentration for half-maximal inhibition (IC50) amounted to 0.0058 µM.
Next, `C[C@@H]1CCCCCCCCC(=O)N(C)[C@@H](C)C(=O)N[C@H]([C@H](O)CNC(C)(C)c2cccc(Br)c2)C1` [BACE_28]: 0.23 µM.
Next, `C[C@@H]1CCCCCCCCC(=O)N(C)[C@@H](C)C(=O)N[C@H]([C@H](O)CNCc2cc(CC(C)(C)C)on2)C1` [BACE_29]: 0.0035 µM.
Next, `C[C@@H]1CCCCCCCCC(=O)N(C)[C@@H](C)C(=O)N[C@H]([C@H](O)CN[C@@H](C)c2cc(CC(C)(C)C)on2)C1` [BACE_30]: 0.001 µM; `C[C@@H]1CCCCCCCCC(=O)N(C)[C@@H](C)C(=O)N[C@H]([C@H](O)CNC(C)(C)c2nnc(CC(C)(C)C)s2)C1` [BACE_31]: 0.24 µM.
The compound `CC(C)c1cccc(CNC[C@@H](O)[C@@H]2C[C@H](C)CCCCCCCCC(=O)N(C)CC(=O)N2)c1` [BACE_32] returned an IC50 of 0.36 µM.
Next, `CC(C)c1cccc(CNC[C@@H](O)[C@@H]2C[C@H](C)CCCCC[C@H](C)CCC(=O)N(C)[C@@H](C)C(=O)N2)c1` [BACE_33]: 0.019 µM; `CC(C)c1cccc(CNC[C@@H](O)[C@@H]2C[C@H](C)CCCCCOCC(=O)N(C)[C@@H](C)C(=O)N2)c1` [BACE_34]: 1 µM; `C[C@@H]1CCCCCCOCC(=O)N(C)[C@@H](C)C(=O)N[C@H]([C@H](O)CNCc2cncc(Br)c2)C1` [BACE_35]: 0.51 µM.
`CC(C)Oc1ccc(C2CC2)cc1CNC[C@@H](O)[C@@H]1C[C@H](C)CCCCCCOCC(=O)N(C)[C@@H](C)C(=O)N1` [BACE_36] registered an IC50 of 1.5 µM.
On to `C[C@@H]1CCCCCCNC(=O)C[C@@H](C)C(=O)N[C@H]([C@H](O)CNCc2cccc(C(C)(C)C)c2)C1` [BACE_37], for which the concentration for half-maximal inhibition (IC50) came to 5.9 µM.
As for `C[C@@H]1CCCCCCCCS(=O)(=O)C[C@@H](C)C(=O)N[C@H]([C@H](O)CNC2(c3cccc(C(C)(C)C)c3)CC2)C1` [BACE_38], the figure is 0.024 µM.
As for `C[C@@H]1CCCCCCCCS(=O)(=O)C[C@@H](C)C(=O)N[C@H]([C@H](O)CN[C@@H](C)c2cc(CC(C)(C)C)on2)C1` [BACE_39], the figure is 0.021 µM.
Next, `CCN1CCCCC[C@@H](C)C[C@@H]([C@H](O)CNCc2cccc(C(C)C)c2)NC(=O)c2cc(cc(-c3ncco3)c2)C1=O` [BACE_40]: 0.0035 µM; `Cc1cc2cc(n1)NCCCCCCC[C@@H](C)C[C@@H]([C@H](O)CNCc1cccc(C(C)C)c1)NC2=O` [BACE_41]: 0.029 µM.
Consider `CC(C)c1cccc(CNC[C@@H](O)[C@@H]2C[C@H](C)CCCCCCCN(C)c3cc(ccn3)C(=O)N2)c1` [BACE_42], for which the midpoint of inhibition, the IC50, lay at 0.74 µM.
Next, `COc1cc2cc(n1)NCCCCCCC[C@@H](C)C[C@@H]([C@H](O)CNCc1cccc(C(C)C)c1)NC2=O` [BACE_43]: 0.014 µM.
Next, `Cc1cc2cc(n1)N(C)CCCCCC[C@@H](C)C[C@@H]([C@H](O)CNCc1cccc(C(C)C)c1)NC2=O` [BACE_44]: 2.1 µM.
`C/C1=C\CCCCCCNc2cc(cc(C)n2)C(=O)N[C@H]([C@H](O)CNCc2cccc(C(C)C)c2)C1` [BACE_45]: the IC50 is 0.0073 µM.
As for `CC(C)c1cccc(CNC[C@@H](O)[C@@H]2C[C@H](C)C/C=C\CCCCNc3cc(cc(Cl)n3)C(=O)N2)c1` [BACE_46], the figure is 0.0095 µM.
Turning to `COCc1cc2cc(n1)NCCCCOCC[C@@H](C)C[C@@H]([C@H](O)CNC1(c3cccc(C(C)(C)C)c3)CC1)NC2=O` [BACE_47], 0.0055 µM corresponded to half-maximal inhibition (IC50).
For the compound `Cc1cc2cc(n1)NCCCCOCC[C@@H](C)C[C@@H]([C@H](O)CNC(C)(C)c1cc(CC(C)(C)C)on1)NC2=O` [BACE_48], the 50% inhibitory concentration (IC50) was 0.083 µM.
For the compound `C/C1=C\[C@@H]([C@H](O)CNCc2cccc(C(C)C)c2)NC(=O)c2cc(Cl)nc(c2)NCCCCOCC1` [BACE_49], the 50% inhibitory concentration (IC50) worked out at 0.47 µM.
In the case of `Cc1cc2cc(n1)NN(C(=O)c1ccc(F)cc1)CCCCCC[C@@H](C)C[C@@H]([C@H](O)CNCc1cccc(C(C)C)c1)NC2=O` [BACE_50], half-maximal inhibition (IC50) was put at 0.046 µM.
As for `CC(C)c1cccc(CNC[C@@H](O)[C@@H]2C[C@H](C)CCCCCCCOc3cc(cc(Cl)n3)C(=O)N2)c1` [BACE_51], the figure is 0.029 µM.
Next, `CC(C)c1ccnc(C2(NC[C@@H](O)[C@@H]3C[C@H](C)CCCCCCCOc4cc(cc(Cl)n4)C(=O)N3)CC2)c1` [BACE_52]: 0.0075 µM.
As for `CC(C)c1cccc(CNC[C@@H](O)[C@@H]2C[C@H](C)CCCCCCCCc3cc(ccn3)C(=O)N2)c1` [BACE_53], the figure is 10 µM; as for `Cc1cc2cc(n1)OCCCOCC[C@@H](C)C[C@@H]([C@H](O)CNCc1cccc(C(C)C)c1)NC2=O` [BACE_54], 1.7 µM; as for `CC(C)c1cccc(C(C)(C)NC[C@@H](O)[C@@H]2C[C@H](C)CCCCCCCNc3cccc(c3)C(=O)N2)c1` [BACE_55], 0.54 µM.
`C[C@@H]1CCCCCCCNc2cccc(c2)C(=O)N[C@H]([C@H](O)CNC2(c3cccc(C(C)(C)C)c3)COC2)C1` [BACE_56] registered an IC50 of 0.17 µM.
As for `C[C@@H]1CCCCCCCNc2cccc(c2)C(=O)N[C@H]([C@H](O)CNC(C)(C)c2cc(CC(C)(C)C)on2)C1` [BACE_57], the figure is 0.023 µM; as for `C[C@@H]1CCCCCCCNc2cccc(c2)C(=O)N[C@H]([C@H](O)CNCc2cc(C(C)(C)C)[nH]n2)C1` [BACE_58], 1.9 µM.
As for `C[C@@H]1CCCCCCCNc2cc(cc(-c3ncco3)c2)C(=O)N[C@H]([C@H](O)CNC2(c3cc(C(C)(C)C)ccn3)CC2)C1` [BACE_59], the figure is 0.0017 µM.
Next, `COCc1cc2cc(c1)C(=O)N[C@H]([C@H](O)CNC1(c3cccc(C(C)(C)C)c3)COC1)C[C@H](C)CCCCCCCN2` [BACE_60]: 0.033 µM; `COCc1cc2cc(c1)C(=O)N[C@H]([C@H](O)CNCc1cc(OC)cc(OC)c1)C[C@H](C)CCCCCCCN2` [BACE_61]: 1.5 µM.
Compound `COCc1cc2cc(c1)C(=O)N[C@H]([C@H](O)CNCc1ccc3c(c1)OCCCO3)C[C@H](C)CCCCCCCN2` [BACE_62] displayed a concentration for half-maximal inhibition (IC50) of 3.4 µM.
Next, `COCc1cc2cc(c1)C(=O)N[C@H]([C@H](O)CN[C@H]1CC(C)(C)Oc3ccc(C(C)C)cc31)C[C@H](C)CCCCCCCN2` [BACE_63]: 0.001 µM; `CCCc1cc(CNC[C@@H](O)[C@@H]2C[C@H](C)CCCCCCCNc3cc(COC)cc(c3)C(=O)N2)no1` [BACE_64]: 0.57 µM.
Next, `COCc1cc2cc(c1)C(=O)N[C@H]([C@H](O)CNCCc1ccncc1)C[C@H](C)CCCCCCCN2` [BACE_65]: 1.7 µM.
